Laboratory results taken from publication PMC6952103, “Biochemical characterization of Ty1 retrotransposon protease” (PLoS ONE, 2020).
Where “and” joins values, the source holds several entries; their conditions need not be identical. Equal values may be shown once. Entries after “also recorded” stand apart in the source; their conditions may differ. Read-outs that look alike come from different tables or passages of the source.

Tests used:
[1] = test system: XMRV PR; conditions: cited from earlier work
Excerpt: (§1) Despite the fact that out of the tested inhibitors only acet ...

[2] = biological target: T1, Ty1 PR-His6 (Saccharomyces cerevisiae, UniProt Q07793); assay: Inhibition study of Ty1 PR-His6; type: biochemical; conditions: Ty1 PR-His6 (400–1600 nM), VPTIN*NVHTS 0.44 mM, inhibitor ≥100 nM final, DMSO, peptide buffer A, 2 h at 30°C
T1 construct: made in house; host or cells: E. coli BL21(DE3), pET11a Gag-PR-His6 (gift of J.F. Lawler); soluble fraction, Ni-chelate chromatography, autoprocessed
T1 sequence (Q07793 402-582 limits assumed): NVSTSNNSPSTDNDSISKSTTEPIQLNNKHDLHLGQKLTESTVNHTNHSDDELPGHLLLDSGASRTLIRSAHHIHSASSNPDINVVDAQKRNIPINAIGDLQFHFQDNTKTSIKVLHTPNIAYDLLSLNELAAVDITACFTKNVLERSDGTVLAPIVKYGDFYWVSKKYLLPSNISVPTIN
Experimental: Ty1 PR-His6 activity was measured in the presence of various HIV-1 protease inhibitors. […] To study effect of inhibitors on proteolytic activity, reaction mixtures contained 5 μl purified Ty1 PR-His6 (400–1600 nM), 10 μl peptide buffer A, 4.8 μl oligopeptide substrate (VPTIN*NVHTS, 0.44 mM), and 0.2 μl inhibitor. For screening, inhibitors were dissolved in DMSO to have ≥100 nM final concentration. DMSO solution containing no inhibitor was used as control. Reaction mixtures were incubated for 2 h at 30°C.

[3] = test system: HIV-1 PR; conditions: cited from earlier work
Excerpt: For instance, the optimal pH of HFV protease is 6.6–6.8 [40] while that of HIV-1 PR is between 4 and 6 [41]. […] Higher sensitivity to urea implies lower dimer stability for Ty1 protease, the possible structural background of this difference is discussed later in the In silico structural analysi ... || (+ 1 further places)

[4] = biological target: T1, Ty1 PR-His6; assay: Oligopeptide-based proteolytic assay (HPLC), Ty1 PR-His6; type: biochemical; conditions: for cleavage (in words): Ty1 PR-His6, oligopeptide substrate 2 mg/ml stock, 2 up to 5 h
Experimental: (§2) The oligopeptides used in the proteolytic assays (Table 1A) were synthesized as previously described. Reaction mixtures contained 10 μl peptide buffer A (20 mM PIPES, 100 mM NaCl, 0.5% Nonidet P-40, 10% glycerol, 2 mM dithiotreitol (DTT), pH 7.0), 5 μl purified Ty1 PR-His6 (processed from Ty1 Gag-PR-His6) or Ty1 PR, and 5 μl oligopeptide substrate (2 mg/ml) dissolved in water. Reaction mixtures were incubated for the different experiments from 2 up to 5 h at 30°C. The reactions were stopped by the addition of 180 μl 1% trifluoroacetic acid (TFA).
(§3) The products were separated by an HPLC-based method using a 0–100% water-acetonitrile gradient in the presence of TFA on Merck Hitachi instrument. For enzyme kinetic measurements, VPTIN*NVHTS oligopeptide substrate (representing Ty1 PR/IN cleavage site) was used at 0.2–1.2 mM; Ty1 PR (400–1600 nM) was incubated with the substrate at 30 °C for 2 h, whereas Ty1 PR-His6 (500–1500 nM) was incubated for 2.5 h. Kinetic parameters (shown in Table 1A) were determined by fitting the data obtained at less than 20% substrate hydrolysis to the Michaelis-Menten equation using GraphPad Prism version 5.00 for Windows (GraphPad Software, La Jolla California USA, www.graphpad.com). Statistical significances were determined by GraphPad QuickCalcs (https://www.graphpad.com/quickcalcs/ttest2).
(§4) For investigation of optimal conditions for enzyme folding, Ty1 PR was dialyzed against various buffers and buffer combinations that have been shown previously to be suitable for retroviral protease activity. In peptide-based assays, both protease and oligopeptide solutions were added to the buffer, and the reaction mixtures were incubated at 30°C, and stopped by the addition TFA. The mixtures were then injected onto a reversed-phase chromatography column in order to separate substrates and cleavage products, the substrate turnover was determined by integration of peak areas.

[5] = biological target: T2, Ty1 PR (Saccharomyces cerevisiae, UniProt Q07793); assay: Oligopeptide-based proteolytic assay (HPLC), untagged Ty1 PR; type: biochemical; conditions: peptide buffer A pH 7.0, 30 °C; for cleavage (in words): Ty1 PR, oligopeptide substrate 2 mg/ml stock, 2 up to 5 h
T2 construct: the protease domain of Ty1 is unusually long, consisting of 181 residues; made in house; host or cells: E. coli BL21(DE3), pET11a
T2 sequence (Q07793 402-582 limits assumed): T1 sequence (Q07793 402-582 limits assumed)
Experimental: as §2, §3, §4

[6] = test system: HFV PR; conditions: ref [40], cited from earlier work; for kcat/Km: buffer optimized for that protease
Excerpt: Similarly low catalytic activities were also observed previously for HFV and the Gag-encoded Avian myeloblastosis virus (AMV) proteases. Both the untagged, and the His6-tagged (self-processed) PRs cleaved th ...

[7] = biological target: Copia transposon protease; conditions: ref [17]; cited from earlier work
Excerpt: as §1

[8] = test system: Copia transposon protease; conditions: ref [17], cited from earlier work
Experimental: The dependence of enzyme activity on ionic strength was studied, and highest activities were measured at 1.5–2 M NaCl concentration (Fig 4A). […] For instance, the optimal pH of HFV protease is 6.6–6.8 [40] while that of HIV-1 PR is between 4 and 6 [41].

[9] = peptide buffer A pH 7.0, 30 °C, HPLC
[10] = Ty1 PR-His6 (500–1500 nM), substrate 0.2–1.2 mM, peptide buffer A pH 7.0, 30 °C, 2.5 h, HPLC, SD (n≥2)
[11] = Ty1 PR (400–1600 nM), substrate 0.2–1.2 mM, 2 h, SD (n≥2)

## COC(=O)N[C@H](C(=O)N[C@@H](Cc1ccccc1)[C@@H](O)CN(Cc1ccc(-c2ccccn2)cc1)NC(=O)[C@@H](NC(=O)OC)C(C)(C)C)C(C)(C)C [atazanavir]
[1]; ref [45]
  inhibition (in words): able to inhibit
[2]
  inhibition of proteolytic activity (in words): unable to inhibit

## Cc1cccc(C)c1OCC(=O)N[C@@H](Cc1ccccc1)[C@@H](O)C[C@H](Cc1ccccc1)NC(=O)[C@H](C(C)C)N1CCCNC1=O [lopinavir]
[1]; ref [45]
  inhibition (in words): able to inhibit
[2]
  inhibition of proteolytic activity (in words): unable to inhibit

## CCC[C@@]1(CCc2ccccc2)CC(O)=C([C@H](CC)c2cccc(NS(=O)(=O)c3ccc(C(F)(F)F)cn3)c2)C(=O)O1 [tipranavir]
[1]; ref [45]
  inhibition (in words): able to inhibit
[2]
  inhibition of proteolytic activity (in words): unable to inhibit

## T26S mutant HIV-1 protease
[3]; T26S mutant, ref [49]
  specific activity compared to wild-type (in words): lower specific activity

## O=C1N(Cc2ccc(CO)cc2)[C@H](Cc2ccccc2)[C@H](O)[C@@H](O)[C@@H](Cc2ccccc2)N1Cc1ccc(CO)cc1 [DMP-323]
[1]; ref [45]
  inhibition (in words): able to inhibit
[2]
  inhibition of proteolytic activity (in words): unable to inhibit

## CC(C)(C)NC(=O)[C@@H]1C[C@@H]2CCCC[C@@H]2CN1C[C@@H](O)[C@H](Cc1ccccc1)NC(=O)[C@H](CC(N)=O)NC(=O)c1ccc2ccccc2n1 [saquinavir]
[2]
  inhibition of proteolytic activity (in words): unable to inhibit

## TARAH*NVSTS [synthetic oligopeptide substrate representing the Gag/PR cleavage site of Ty1]
[4]; [9]
  cleavage (in words): no cleavage was observed
[5]
  cleavage (in words): no cleavage was observed
[6]
  hydrolysis (in words): not hydrolyzed

## IHLIA*AVKAV [synthetic oligopeptide substrate representing the IN/RT cleavage site of Ty1]
[4]; [9]
  cleavage (in words): no cleavage was observed
[5]
  cleavage (in words): no cleavage was observed
[6]
  kcat/Km: 2 ± 0.4 M⁻¹ s⁻¹
  Km: 1000 ± 160 µM
  kcat: 0.0020 ± 0.0002 s⁻¹

## VPTIN*NVHTS [synthetic oligopeptide substrate representing the PR/IN cleavage site of Ty1]
[4]; [10]
  Km: 250 ± 90 µM
  kcat: 0.009 ± 0.001 s⁻¹
  kcat/Km: 36 ± 13.2 M⁻¹ s⁻¹
[4]; [9]
  cleavage (in words): cleaved
[4]; Ty1 PR-His6 versus untagged Ty1 PR
  difference of specificity constants between untagged Ty1 PR and Ty1 PR-His6 (in words): not significant statistically
[5]; [11]
  Km: 210 ± 70 µM
  kcat: 0.006 ± 0.001 s⁻¹
  kcat/Km: 28 ± 10.5 M⁻¹ s⁻¹
[5]
  cleavage (in words): cleaved
[6]
  kcat/Km: 7 M⁻¹ s⁻¹ and 7 ± 2.4 M⁻¹ s⁻¹
  Km: 30 ± 10 µM
  kcat: 0.0002 ± 0.00003 s⁻¹

## CC(C)CN(C[C@@H](O)[C@H](Cc1ccccc1)NC(=O)O[C@H]1CCOC1)S(=O)(=O)c1ccc(N)cc1 [amprenavir]
[1]; ref [45]
  inhibition (in words): able to inhibit
[2]
  inhibition of proteolytic activity (in words): unable to inhibit

## pepstatin A
[7]
  Ki: 15 nM
[1]; ref [29]
  inhibition (in words): weak inhibitors
[2]
  inhibition of proteolytic activity (in words): no inhibitory potential; also recorded: unable for the inhibition

## HIV-1 PR: human immunodeficiency virus type 1 protease
[3]; HIV-1 PR, 37°C, ref [41]
  activity at 37°C (in words): highly active
[3]; HIV-1 PR, ref [29]
  UC50 (urea): 1.47 M

## CC(C)CN(C[C@@H](O)[C@H](Cc1ccccc1)NC(=O)O[C@H]1CO[C@H]2OCC[C@H]21)S(=O)(=O)c1ccc(N)cc1 [darunavir]
[1]; ref [45]
  inhibition (in words): able to inhibit
[2]
  inhibition of proteolytic activity (in words): unable to inhibit

## Cc1c(O)cccc1C(=O)N[C@@H](CSc1ccccc1)[C@H](O)CN1C[C@H]2CCCC[C@H]2C[C@H]1C(=O)NC(C)(C)C [nelfinavir]
[2]
  inhibition of proteolytic activity (in words): unable to inhibit

B1: Copia transposon protease: Copia transposon protease of D. melanogaster (protein, UniProt P04146 271-1409, looked up)
Copia protease: IAFMVKEVNNTSVMDNCGFVLDSGASDHLINDESLYTDSVEVVPPLKIAVAKQGEFIYATKRGIVRLRNDHEITLEDVLFCKEAAGNLMSVKRLQEAGMSIEFDKSGVTISKNGLMVVKNSGMLNNVPVINFQAYSINAKHKNNFRLWHERFGHISDGKLLEIKRKNMFSDQSLLNNLELSCEICEPCLNGKQARLPFKQLKDKTHIKRPLFVVHSDVCGPITPVTLDDKNYFVIFVDQFTHYCVTYLIKYKSDVFSMFQDFVAKSEAHFNLKVVYLYIDNGREYLSNEMRQFCVKKGISYHLTVPHTPQLNGVSERMIRTITEKARTMVSGAKLDKSFWGEAVLTATYLINRIPSRALVDSSKTPYEMWHNKKPYLKHLRVFGATVYVHIKNKQGKFDDKSFKSIFVGYEPNGFKLWDAVNEKFIVARDVVVDETNMVNSRAVKFETVFLKDSKESENKNFPNDSRKIIQTEFPNESKECDNIQFLKDSKESENKNFPNDSRKIIQTEFPNESKECDNIQFLKDSKESNKYFLNESKKRKRDDHLNESKGSGNPNESRESETAEHLKEIGIDNPTKNDGIEIINRRSERLKTKPQISYNEEDNSLNKVVLNAHTIFNDVPNSFDEIQYRDDKSSWEEAINTELNAHKINNTWTITKRPENKNIVDSRWVFSVKYNELGNPIRYKARLVARGFTQKYQIDYEETFAPVARISSFRFILSLVIQYNLKVHQMDVKTAFLNGTLKEEIYMRLPQGISCNSDNVCKLNKAIYGLKQAARCWFEVFEQALKECEFVNSSVDRCIYILDKGNINENIYVLLYVDDVVIATGDMTRMNNFKRYLMEKFRMTDLNEIKHFIGIRIEMQEDKIYLSQSAYVKKILSKFNMENCNAVSTPLPSKINYELLNSDEDCNTPCRSLIGCLMYIMLCTRPDLTTAVNILSRYSSKNNSELWQNLKRVLRYLKGTIDMKLIFKKNLAFENKIIGYVDSDWAGSEIDRKSTTGYLFKMFDFNLICWNTKRQNSVAASSTEAEYMALFEAVREALWLKFLLTSINIKLENPIKIYEDNQGCISIANNPSCHKRAKHIDIKYHFAREQVQNNVICLEYIPTENQLADIFTKPLPAARFVELRDKLGLLQDDQSNAE
modifications: Copia protease
notes: Copia transposon protease of D. melanogaster
[8]; 20–70°C temperature range
  relative activity: ≥ 50%
[8]; Copia transposon protease
  NaCl concentration of highest activity: 2 M
  pH at which synthetic substrate is cleaved most efficiently: 4.0
  temperature of highest activity: 70 °C
